Series [1] is described as follows: Retention time in reverse phase chromatography (HPLC). Particulars: reverse phase HPLC as described previously (Zhou et al. 2015); used by the paper to reflect changed hydrophobicity/polarity of the variants. Type of series: physicochemical. As for the experimental part: To obtain pure peptides for activity tests, the supernatant of 100 ml culture (filtered with 0.2 µm filter, Millipore) was first incubated with 5 ml supernatant of NisP (filtered) at 30 °C for 1 h to cut off the leader part and then purified with cation-ion exchange (HiTrap SP FF, GE healthcare) (van Heel et al. [2013]). The elutions were further loaded on a C18 column (Spherical C18, Sigma- Aldrich). The column was washed and eluted with different concentrations of solution B (solution A, milliQ with 0.1 % TFA; solution B, isopropanol: acetonitrile (2:1) with 0.1 % TFA). The elutions which were active against L. lactis were freeze-dried and further purified with HPLC as described previously (Zhou et al. [2015]). The fractions containing the peaks in the HPLC chromatogram were analysed by activity tests and MALDI-TOF (van Heel et al. [2013]). The peak which was active and contained the pure peptide with right mass was freeze-dried and quantified with HPLC as described previously (Zhou et al. [2015]).
Nisin is a positively charged and hydrophobic molecule. […] This difference was reflected by the elution time of the peptides in cation-ion exchange and reverse phase chromatography (HPLC). The variants with 5HW were eluted about half column volume earlier than other variants during cation-ion exchange (data not shown).

A further series has as its system L. lactis MG1363. The series is described as follows: MIC test against indicator strain L. lactis MG1363. The class given is cell-based, Lactococcus lactis. Particulars: for Change of antimicrobial activity, in words: I1 variants compared to I1W, I4 variant compared to nisin. As for the experimental part: The indicator strain L. lactis MG1363 was first streaked on a GM17 plate and cultured overnight. Before testing the MIC, three to five colonies were picked and cultured with GM17 medium until OD600 reached 0.5. The culture was diluted 500 times with GM17 and mixed with the same volume of peptides dissolved in GM17. The MIC value test was performed according to Wiegand et al. ([2008]).

Series [2] relates to Streptococcus thermophilus. The following applies: ref Kuipers et al. 1995; Demel et al. 1996; Van Kraaij et al. 1997; Breukink et al. 1998; cited from earlier work. The source says:
(§1) The first two rings of nisin can bind to lipid II which is essential for cell wall synthesis. The C-terminus of nisin can insert into the membrane enabling pore formation (Breukink and de Kruijff [2006]). Mutagenesis of nisin has been conducted extensively and several residues have been mutated to tryptophan, e.g. I1W, M17W and V32W, which all reduce nisin activity but not dramatically, against Micrococcus flavus by two to three times and against Streptococcus thermophilus by three to eigh ... || The first two rings of nisin can bind to lipid II by forming a pyrophosphate cage (Hsu et al. [2004]).

A further series relates to Micrococcus flavus. The following applies: ref Kuipers et al. 1995; Demel et al. 1996; Van Kraaij et al. 1997; Breukink et al. 1998; cited from earlier work.
Source text: as §1

As to `C=C(NC(=O)[C@@H](NC(=O)[C@H](Cc1c[nH]cn1)NC(=O)[C@@H](NC(=O)[C@H](CO)NC(=O)[C@@H]1CS[C@@H](C)[C@H]2NC(=O)[C@H](C)NC(=O)[C@H](NC(=O)[C@H](CCCCN)NC(=O)[C@H](CCSC)NC(=O)[C@H](CC(N)=O)NC(=O)[C@@H]3CS[C@@H](C)[C@@H](NC(=O)[C@H](CCCCN)NC(=O)[C@@H]4CS[C@@H](C)[C@@H](NC(=O)[C@@H]5CSC[C@@H](NC(=O)/C(=C/C)NC(=O)[C@@H](N)[C@@H](C)CC)C(=O)N[C@@H]([C@@H](C)CC)C(=O)NC(=C)C(=O)N[C@@H](CC(C)C)C(=O)N5)C(=O)N5CCC[C@H]5C(=O)NCC(=O)N4)C(=O)NCC(=O)N[C@@H](C)C(=O)N[C@@H](CC(C)C)C(=O)N[C@@H](Cc4c[nH]c5ccc(O)cc45)C(=O)NCC(=O)N3)[C@H](C)SC[C@H](NC2=O)C(=O)N[C@@H](Cc2c[nH]cn2)C(=O)N1)[C@@H](C)CC)C(C)C)C(=O)N[C@@H](CCCCN)C(=O)O` [M17-5HW], in series [1], the “Retention time of HPLC” value turned out to be 37.2 min. Besides, the “Reduction of antimicrobial activity compared to nisin” value (“Reduction … to nisin” below) in the series on L. lactis MG1363 (from MIC values) is reported as 32 times.

As to `C=C(NC(=O)[C@@H](NC(=O)[C@H](Cc1c[nH]cn1)NC(=O)[C@@H](NC(=O)[C@H](CO)NC(=O)[C@@H]1CS[C@@H](C)[C@H]2NC(=O)[C@H](C)NC(=O)[C@H](NC(=O)[C@H](CCCCN)NC(=O)[C@H](CCSC)NC(=O)[C@H](CC(N)=O)NC(=O)[C@@H]3CS[C@@H](C)[C@@H](NC(=O)[C@H](CCCCN)NC(=O)[C@@H]4CS[C@@H](C)[C@@H](NC(=O)[C@@H]5CSC[C@@H](NC(=O)/C(=C/C)NC(=O)[C@@H](N)Cc6c[nH]c7ccccc67)C(=O)N[C@@H]([C@@H](C)CC)C(=O)NC(=C)C(=O)N[C@@H](CC(C)C)C(=O)N5)C(=O)N5CCC[C@H]5C(=O)NCC(=O)N4)C(=O)NCC(=O)N[C@@H](C)C(=O)N[C@@H](CC(C)C)C(=O)N[C@@H](CCSC)C(=O)NCC(=O)N3)[C@H](C)SC[C@H](NC2=O)C(=O)N[C@@H](Cc2c[nH]cn2)C(=O)N1)[C@@H](C)CC)C(C)C)C(=O)N[C@@H](CCCCN)C(=O)O` [I1-W], in series [1], the “Retention time of HPLC” value is recorded as 38.0 min. Besides, in the series on L. lactis MG1363 (from MIC values), the “Reduction … to nisin” value is “two”. Further, the “Reduction of nisin activity against Streptococcus thermophilus” value in series [2] was “three to eight”. Further, the “Reduction of nisin activity against Micrococcus flavus” value in the series on Micrococcus flavus was “two to three”.

Regarding `C=C(NC(=O)[C@@H](NC(=O)[C@H](Cc1c[nH]cn1)NC(=O)[C@@H](NC(=O)[C@H](CO)NC(=O)[C@@H]1CS[C@@H](C)[C@H]2NC(=O)[C@H](C)NC(=O)[C@H](NC(=O)[C@H](CCCCN)NC(=O)[C@H](CCSC)NC(=O)[C@H](CC(N)=O)NC(=O)[C@@H]3CS[C@@H](C)[C@@H](NC(=O)[C@H](CCCCN)NC(=O)[C@@H]4CS[C@@H](C)[C@@H](NC(=O)[C@@H]5CSC[C@@H](NC(=O)/C(=C/C)NC(=O)[C@@H](N)Cc6c[nH]c7ccc(O)cc67)C(=O)N[C@@H]([C@@H](C)CC)C(=O)NC(=C)C(=O)N[C@@H](CC(C)C)C(=O)N5)C(=O)N5CCC[C@H]5C(=O)NCC(=O)N4)C(=O)NCC(=O)N[C@@H](C)C(=O)N[C@@H](CC(C)C)C(=O)N[C@@H](CCSC)C(=O)NCC(=O)N3)[C@H](C)SC[C@H](NC2=O)C(=O)N[C@@H](Cc2c[nH]cn2)C(=O)N1)[C@@H](C)CC)C(C)C)C(=O)N[C@@H](CCCCN)C(=O)O` [I1-5HW], the “Retention time of HPLC” value in series [1] worked out at 35.0 min. Moreover, in the series with L. lactis MG1363 (from MIC values), the “Reduction of antimicrobial activity compared to I1W” value is “two” and the “Reduction … to nisin” value was “four”.

Take `C=C(NC(=O)[C@@H](NC(=O)[C@H](Cc1c[nH]cn1)NC(=O)[C@@H](NC(=O)[C@H](CO)NC(=O)[C@@H]1CS[C@@H](C)[C@H]2NC(=O)[C@H](C)NC(=O)[C@H](NC(=O)[C@H](CCCCN)NC(=O)[C@H](CCSC)NC(=O)[C@H](CC(N)=O)NC(=O)[C@@H]3CS[C@@H](C)[C@@H](NC(=O)[C@H](CCCCN)NC(=O)[C@@H]4CS[C@@H](C)[C@@H](NC(=O)[C@@H]5CSC[C@@H](NC(=O)/C(=C/C)NC(=O)[C@@H](N)Cc6c[nH]c7ccc(F)cc67)C(=O)N[C@@H]([C@@H](C)CC)C(=O)NC(=C)C(=O)N[C@@H](CC(C)C)C(=O)N5)C(=O)N5CCC[C@H]5C(=O)NCC(=O)N4)C(=O)NCC(=O)N[C@@H](C)C(=O)N[C@@H](CC(C)C)C(=O)N[C@@H](CCSC)C(=O)NCC(=O)N3)[C@H](C)SC[C@H](NC2=O)C(=O)N[C@@H](Cc2c[nH]cn2)C(=O)N1)[C@@H](C)CC)C(C)C)C(=O)N[C@@H](CCCCN)C(=O)O` [I1-5FW]: the “Retention time of HPLC” value in series [1] amounted to 38.9 min. For the same compound, the figures for the “Change of antimicrobial activity, in words” value in the series on L. lactis MG1363 (listed as 5FW analogue of I1W) and in the series on L. lactis MG1363 (listed as 5FW labelled I1W) were “did not change the activity” and “the same activity”, respectively. In addition, in the series on L. lactis MG1363 (from MIC values), the “Reduction … to nisin” value is “two”.

Take `C=C(NC(=O)[C@@H](NC(=O)[C@H](Cc1c[nH]cn1)NC(=O)[C@@H](NC(=O)[C@H](CO)NC(=O)[C@@H]1CS[C@@H](C)[C@H]2NC(=O)[C@H](C)NC(=O)[C@H](NC(=O)[C@H](CCCCN)NC(=O)[C@H](CCSC)NC(=O)[C@H](CC(N)=O)NC(=O)[C@@H]3CS[C@@H](C)[C@@H](NC(=O)[C@H](CCCCN)NC(=O)[C@@H]4CS[C@@H](C)[C@@H](NC(=O)[C@@H]5CSC[C@@H](NC(=O)/C(=C/C)NC(=O)[C@@H](N)[C@@H](C)CC)C(=O)N[C@@H]([C@@H](C)CC)C(=O)NC(=C)C(=O)N[C@@H](CC(C)C)C(=O)N5)C(=O)N5CCC[C@H]5C(=O)NCC(=O)N4)C(=O)NCC(=O)N[C@@H](C)C(=O)N[C@@H](CC(C)C)C(=O)N[C@@H](Cc4c[nH]c5ccccc45)C(=O)NCC(=O)N3)[C@H](C)SC[C@H](NC2=O)C(=O)N[C@@H](Cc2c[nH]cn2)C(=O)N1)[C@@H](C)CC)C(C)C)C(=O)N[C@@H](CCCCN)C(=O)O` [M17-W]: in series [1], the “Retention time of HPLC” value was 38.5 min. Also, in the series with L. lactis MG1363 (from MIC values), the “Reduction … to nisin” value stood at 32 times. The “Reduction of nisin activity against Streptococcus thermophilus” value in series [2] was “three to eight”. In the series with Micrococcus flavus, the “Reduction of nisin activity against Micrococcus flavus” value is reported as “two to three”.

These data come from paper PMC4833812, “Incorporation of tryptophan analogues into the lantibiotic nisin” (Amino Acids, 2016).
